Data taken from patent US20090029366A1 (priority 2007, published 2009).
Read-outs that look alike come from different tables or passages of the source.

Target: T1, human HCN4 channel (Homo sapiens, UniProt Q9Y3Q4)
T1 construct: expressed in transfected cells; host or cells: CHO-K1
T1 sequence (Q9Y3Q4 1-1203): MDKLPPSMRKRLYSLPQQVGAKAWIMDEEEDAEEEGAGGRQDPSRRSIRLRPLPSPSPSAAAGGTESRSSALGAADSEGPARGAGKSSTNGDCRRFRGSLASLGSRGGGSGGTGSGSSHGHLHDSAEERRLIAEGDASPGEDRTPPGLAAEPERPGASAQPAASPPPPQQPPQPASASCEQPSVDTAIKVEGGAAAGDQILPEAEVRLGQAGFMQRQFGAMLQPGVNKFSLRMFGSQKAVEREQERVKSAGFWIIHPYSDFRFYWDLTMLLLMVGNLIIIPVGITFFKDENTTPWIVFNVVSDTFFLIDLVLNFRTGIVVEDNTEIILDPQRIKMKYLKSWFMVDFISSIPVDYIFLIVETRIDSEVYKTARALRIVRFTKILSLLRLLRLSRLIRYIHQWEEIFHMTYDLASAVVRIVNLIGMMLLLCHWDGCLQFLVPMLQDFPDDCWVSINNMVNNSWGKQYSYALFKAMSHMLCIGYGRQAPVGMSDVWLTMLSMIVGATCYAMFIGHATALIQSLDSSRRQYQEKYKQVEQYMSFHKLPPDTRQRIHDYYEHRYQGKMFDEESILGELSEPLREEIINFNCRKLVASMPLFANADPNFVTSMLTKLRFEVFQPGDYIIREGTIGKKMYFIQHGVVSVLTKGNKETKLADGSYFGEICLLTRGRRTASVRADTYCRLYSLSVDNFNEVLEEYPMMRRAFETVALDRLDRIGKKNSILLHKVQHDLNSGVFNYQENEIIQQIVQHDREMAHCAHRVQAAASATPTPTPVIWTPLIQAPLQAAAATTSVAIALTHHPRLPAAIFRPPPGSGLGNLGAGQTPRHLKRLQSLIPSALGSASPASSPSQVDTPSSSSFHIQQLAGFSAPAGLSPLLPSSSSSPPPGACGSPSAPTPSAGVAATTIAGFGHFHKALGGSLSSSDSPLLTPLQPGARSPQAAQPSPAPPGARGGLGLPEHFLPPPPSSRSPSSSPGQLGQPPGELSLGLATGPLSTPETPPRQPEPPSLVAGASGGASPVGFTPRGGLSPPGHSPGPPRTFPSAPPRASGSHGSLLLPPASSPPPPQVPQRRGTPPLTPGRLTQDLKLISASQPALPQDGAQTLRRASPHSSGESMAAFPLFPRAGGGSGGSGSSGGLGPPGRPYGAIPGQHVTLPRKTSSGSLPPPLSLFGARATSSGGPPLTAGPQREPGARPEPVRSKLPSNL
Assay: Dose response of blockade of hyperpolarization (MPSD FLIPR), HCN4
Type: cell-based
Experimental: HEK-293H cells stably expressing a human HCN1 channel were plated and incubated in HBSS essentially as described in Examples 3 and 5. CHO-K1 cells stably expressing a human HCN4 channel were plated and incubated in HBSS essentially as described in Example 6. Varying concentrations of ZD7288 were added to HBSS for each of the test wells to determine the dose response of cells expressing HCN1 or HCN4 channels. The percent inhibition of hyperpolarization was calculated for a single dose using the following equation:
The data were fit with a Hill equation as described by the ratio 1/(1+([test agent]/IC50)^k, where IC50 is the concentration of a test agent required to inhibit one-half of the maximum current and k is the Hill coefficient.
Similarly, ZD7288 IC50 values on HCN4 channel were determined in a set of two experiments. […] No statistical difference was found between the two experiments.

How did the IC50 (CHO-K1, group 1, n=8, mean ± 2.31 μM, read-out: IC50 mean, group 1) turn out when `CCN(c1ccccc1)c1cc(=NC)n(C)c(C)n1.Cl` [ZD7288] was run?
Its IC50 is 9.07 µM.

What about the IC50 (CHO-K1, group 2, n=8, mean ± 2.61 μM, read-out: IC50 mean, group 2) of the same compound?
Its IC50 is 9.06 µM.
